Reference: ChEMBL document CHEMBL3400134, “Synthesis and biological evaluation of fluconazole analogs with triazole-modified scaffold as potent antifungal agents” (Bioorg Med Chem, 2015)
Converted amounts (≈) assume the structure as drawn.

Key:
Candida albicans [1] = assay: Antifungal activity against Candida albicans ATCC 18804 after 24 to 168 hrs by broth microdilution assay; assay type: functional
Candida albicans [2] = assay: Antifungal activity against Candida albicans PTCC 6027 after 24 to 168 hrs by broth microdilution assay; assay type: functional
Nakaseomyces glabratus [3] = assay: Antifungal activity against Candida glabrata IFRC 339 after 24 to 168 hrs by broth microdilution assay; assay type: functional
Cryptococcus neoformans = assay: Antifungal activity against Cryptococcus neoformans IFRC 192 after 24 to 168 hrs by broth microdilution assay; assay type: functional
Aspergillus fumigatus = assay: Antifungal activity against Aspergillus fumigatus ATCC 1028 after 24 to 168 hrs by broth microdilution assay; assay type: functional
Candida albicans [4] = assay: Ratio of fluconazole MIC to compound MIC for Candida albicans ATCC 18804; assay type: functional
Candida albicans [5] = assay: Ratio of fluconazole MIC to compound MIC for Candida albicans PTCC 6027; assay type: functional
Nakaseomyces glabratus [6] = assay: Ratio of fluconazole MIC to compound MIC for Candida glabrata IFRC 339; assay type: functional
HepG2 = assay: Cytotoxicity against human HepG2 cells after 2 days by MTT assay; assay type: cell-based; details: HepG2, 48 h
[7] = Stability of the compound in deuterated DMSO at RT after 2 weeks by 1H-NMR spectroscopy; assay type: physicochemical; details: 336 h
[8] = Stability of the compound in PBS at 0.15 to 6 ug/ml at pH 5.8 to 8 at RT after 2 weeks by UV spectrophotometry; assay type: physicochemical; details: buffer, pH 5.8, 336 h

OC(CSc1nnc(-c2ccccc2)[nH]1)(Cn1cncn1)c1ccc(F)cc1F (centres undefined)
MIC (Candida albicans [1]): 0.5 µg/mL (≈ 1.21 µM)
MIC (Candida albicans [2]): 8 µg/mL (≈ 19.3 µM)
MIC (Nakaseomyces glabratus [3]): 128 µg/mL (≈ 309 µM)
MIC (Cryptococcus neoformans): > 128 µg/mL
MIC (Aspergillus fumigatus): > 128 µg/mL

Oc1ccc(-c2nnc(SCC(O)(Cn3cncn3)c3ccc(F)cc3F)[nH]2)cc1 (centres undefined)
MIC (Candida albicans [1]): > 128 µg/mL
MIC (Candida albicans [2]): > 128 µg/mL
MIC (Nakaseomyces glabratus [3]): 128 µg/mL (≈ 297 µM)
MIC (Cryptococcus neoformans): > 128 µg/mL
MIC (Aspergillus fumigatus): > 128 µg/mL

Cc1ccc(-c2nnc(SCC(O)(Cn3cncn3)c3ccc(F)cc3F)[nH]2)cc1 (centres undefined)
MIC (Candida albicans [1]): 2 µg/mL (≈ 4.67 µM)
MIC (Candida albicans [2]): 2 µg/mL (≈ 4.67 µM)
MIC (Nakaseomyces glabratus [3]): 128 µg/mL (≈ 299 µM)
MIC (Cryptococcus neoformans): > 128 µg/mL
MIC (Aspergillus fumigatus): > 128 µg/mL

COc1ccc(-c2nnc(SCC(O)(Cn3cncn3)c3ccc(F)cc3F)[nH]2)cc1 (centres undefined)
MIC (Candida albicans [1]): 2 µg/mL (≈ 4.5 µM)
MIC (Candida albicans [2]): 4 µg/mL (≈ 9 µM)
MIC (Nakaseomyces glabratus [3]): 4 µg/mL (≈ 9 µM)
MIC (Cryptococcus neoformans): > 128 µg/mL
MIC (Aspergillus fumigatus): > 128 µg/mL

OC(CSc1nnc(-c2ccc(F)cc2)[nH]1)(Cn1cncn1)c1ccc(F)cc1F (centres undefined)
MIC (Candida albicans [1]): 8 µg/mL (≈ 18.5 µM)
MIC (Candida albicans [2]): 4 µg/mL (≈ 9.25 µM)
MIC (Nakaseomyces glabratus [3]): 4 µg/mL (≈ 9.25 µM)
MIC (Cryptococcus neoformans): > 128 µg/mL
MIC (Aspergillus fumigatus): > 128 µg/mL

OC(CSc1nnc(-c2ccc(Cl)cc2)[nH]1)(Cn1cncn1)c1ccc(F)cc1F (centres undefined)
MIC (Candida albicans [1]): 0.5 µg/mL (≈ 1.11 µM)
MIC (Candida albicans [2]): 1 µg/mL (≈ 2.23 µM)
MIC (Nakaseomyces glabratus [3]): 128 µg/mL (≈ 285 µM)
MIC (Cryptococcus neoformans): > 128 µg/mL
MIC (Aspergillus fumigatus): > 128 µg/mL

OC(CSc1nnc(-c2cccc(Br)c2)[nH]1)(Cn1cncn1)c1ccc(F)cc1F (centres undefined)
MIC (Candida albicans [1]): 8 µg/mL (≈ 16.2 µM)
MIC (Candida albicans [2]): 8 µg/mL (≈ 16.2 µM)
MIC (Nakaseomyces glabratus [3]): 128 µg/mL (≈ 259 µM)
MIC (Cryptococcus neoformans): > 128 µg/mL
MIC (Aspergillus fumigatus): > 128 µg/mL

OC(CSc1nnc(-c2ccc(Cl)cc2Cl)[nH]1)(Cn1cncn1)c1ccc(F)cc1F (centres undefined)
MIC (Candida albicans [1]): 0.5 µg/mL (≈ 1.03 µM)
MIC (Candida albicans [2]): 0.03 µg/mL (≈ 0.0621 µM)
MIC (Nakaseomyces glabratus [3]): 0.25 µg/mL (≈ 0.517 µM)
MIC (Cryptococcus neoformans): 64 µg/mL (≈ 132 µM)
MIC (Aspergillus fumigatus): > 128 µg/mL
Ratio (Candida albicans [4]): 8
Ratio (Candida albicans [5]): 4
Ratio (Nakaseomyces glabratus [6]): 4
IC50 (HepG2): > 250 µg/mL
Stability [7]: Stable
Stability [8]: Stable

OC(CSc1nnc(-c2ccncc2)[nH]1)(Cn1cncn1)c1ccc(F)cc1F (centres undefined)
MIC (Candida albicans [1]): 64 µg/mL (≈ 154 µM)
MIC (Candida albicans [2]): 64 µg/mL (≈ 154 µM)
MIC (Nakaseomyces glabratus [3]): 128 µg/mL (≈ 308 µM)
MIC (Cryptococcus neoformans): > 128 µg/mL
MIC (Aspergillus fumigatus): > 128 µg/mL

OC(CSc1nnc(-c2ccccc2)[nH]1)(Cn1cncn1)c1ccc(Cl)cc1Cl (centres undefined)
MIC (Candida albicans [1]): 4 µg/mL (≈ 8.94 µM)
MIC (Candida albicans [2]): 1 µg/mL (≈ 2.24 µM)
MIC (Nakaseomyces glabratus [3]): 128 µg/mL (≈ 286 µM)
MIC (Cryptococcus neoformans): > 128 µg/mL
MIC (Aspergillus fumigatus): > 128 µg/mL

Oc1ccc(-c2nnc(SCC(O)(Cn3cncn3)c3ccc(Cl)cc3Cl)[nH]2)cc1 (centres undefined)
MIC (Candida albicans [1]): 16 µg/mL (≈ 34.5 µM)
MIC (Candida albicans [2]): 16 µg/mL (≈ 34.5 µM)
MIC (Nakaseomyces glabratus [3]): 128 µg/mL (≈ 276 µM)
MIC (Cryptococcus neoformans): 128 µg/mL (≈ 276 µM)
MIC (Aspergillus fumigatus): > 128 µg/mL

Cc1ccc(-c2nnc(SCC(O)(Cn3cncn3)c3ccc(Cl)cc3Cl)[nH]2)cc1 (centres undefined)
MIC (Candida albicans [1]): 1 µg/mL (≈ 2.17 µM)
MIC (Candida albicans [2]): 0.125 µg/mL (≈ 0.271 µM)
MIC (Nakaseomyces glabratus [3]): 128 µg/mL (≈ 277 µM)
MIC (Cryptococcus neoformans): 128 µg/mL (≈ 277 µM)
MIC (Aspergillus fumigatus): > 128 µg/mL

COc1ccc(-c2nnc(SCC(O)(Cn3cncn3)c3ccc(Cl)cc3Cl)[nH]2)cc1 (centres undefined)
MIC (Candida albicans [1]): 32 µg/mL (≈ 67 µM)
MIC (Candida albicans [2]): > 128 µg/mL
MIC (Nakaseomyces glabratus [3]): 128 µg/mL (≈ 268 µM)
MIC (Cryptococcus neoformans): > 128 µg/mL
MIC (Aspergillus fumigatus): > 128 µg/mL

OC(CSc1nnc(-c2ccc(F)cc2)[nH]1)(Cn1cncn1)c1ccc(Cl)cc1Cl (centres undefined)
MIC (Candida albicans [1]): 0.5 µg/mL (≈ 1.07 µM)
MIC (Candida albicans [2]): 0.125 µg/mL (≈ 0.269 µM)
MIC (Nakaseomyces glabratus [3]): 128 µg/mL (≈ 275 µM)
MIC (Cryptococcus neoformans): > 128 µg/mL
MIC (Aspergillus fumigatus): > 128 µg/mL

OC(CSc1nnc(-c2ccc(Cl)cc2)[nH]1)(Cn1cncn1)c1ccc(Cl)cc1Cl (centres undefined)
MIC (Candida albicans [1]): 0.5 µg/mL (≈ 1.04 µM)
MIC (Candida albicans [2]): 0.125 µg/mL (≈ 0.259 µM)
MIC (Nakaseomyces glabratus [3]): 128 µg/mL (≈ 266 µM)
MIC (Cryptococcus neoformans): > 128 µg/mL
MIC (Aspergillus fumigatus): > 128 µg/mL

OC(CSc1nnc(-c2cccc(Br)c2)[nH]1)(Cn1cncn1)c1ccc(Cl)cc1Cl (centres undefined)
MIC (Candida albicans [1]): 0.25 µg/mL (≈ 0.475 µM)
MIC (Candida albicans [2]): 0.06 µg/mL (≈ 0.114 µM)
MIC (Nakaseomyces glabratus [3]): 128 µg/mL (≈ 243 µM)
MIC (Cryptococcus neoformans): 4 µg/mL (≈ 7.6 µM)
MIC (Aspergillus fumigatus): > 128 µg/mL
Ratio (Candida albicans [4]): 8

OC(CSc1nnc(-c2ccc(Cl)cc2Cl)[nH]1)(Cn1cncn1)c1ccc(Cl)cc1Cl (centres undefined)
MIC (Candida albicans [1]): 0.5 µg/mL (≈ 0.969 µM)
MIC (Candida albicans [2]): < 0.01 µg/mL
MIC (Nakaseomyces glabratus [3]): 0.25 µg/mL (≈ 0.484 µM)
MIC (Cryptococcus neoformans): 32 µg/mL (≈ 62 µM)
MIC (Aspergillus fumigatus): > 128 µg/mL
Ratio (Candida albicans [4]): 25
Ratio (Candida albicans [5]): 4
Ratio (Nakaseomyces glabratus [6]): 4
IC50 (HepG2): 97.1 µg/mL (≈ 188 µM)

OC(CSc1nnc(-c2ccncc2)[nH]1)(Cn1cncn1)c1ccc(Cl)cc1Cl (centres undefined)
MIC (Candida albicans [1]): 8 µg/mL (≈ 17.8 µM)
MIC (Candida albicans [2]): 4 µg/mL (≈ 8.92 µM)
MIC (Nakaseomyces glabratus [3]): 128 µg/mL (≈ 285 µM)
MIC (Cryptococcus neoformans): > 128 µg/mL
MIC (Aspergillus fumigatus): > 128 µg/mL

Nn1c(SCC(O)(Cn2cncn2)c2ccc(F)cc2F)nnc1-c1ccc(Cl)cc1Cl (centres undefined)
MIC (Candida albicans [2]): 16 µg/mL (≈ 32.1 µM)

Nn1c(SCC(O)(Cn2cncn2)c2ccc(Cl)cc2Cl)nnc1-c1ccc(Cl)cc1Cl (centres undefined)
MIC (Candida albicans [2]): 8 µg/mL (≈ 15.1 µM)

OC(Cn1cncn1)(Cn1cncn1)c1ccc(F)cc1F [FLUCONAZOLE]
MIC (Candida albicans [1]): 2 µg/mL (≈ 6.53 µM)
MIC (Candida albicans [2]): 0.25 µg/mL (≈ 0.816 µM)
MIC (Nakaseomyces glabratus [3]): 64 µg/mL (≈ 209 µM)
MIC (Cryptococcus neoformans): 4 µg/mL (≈ 13.1 µM)
MIC (Aspergillus fumigatus): 8 µg/mL (≈ 26.1 µM)
IC50 (HepG2): > 250 µg/mL
